Laboratory results from patent US7517532B2, “Dihydroxypyridopyrazine-1,6-dione compounds useful as HIV integrase inhibitors” (Merck & Co., Inc., priority 2002, dated 2009).

System: HIV
Assay: Assay for inhibition of HIV replication (acute HIV infection of T-lymphoid cells)
Assay type: cell-based
Settings: Human immunodeficiency virus 1, T-lymphoid
Experimental: Assay for Inhibition of HIV Replication
Assays for the inhibition of acute HIV infection of T-lymphoid cells were conducted in accordance with Vacca, J. P. et al., Proc. Natl. Acad. Sci. USA 1994, 91: 4096.

SMILES	IC95
CC1Cn2c(c(O)c(O)cc2=O)C(=O)N1Cc1ccc(F)cc1 (stereo not drawn) [Example 18, 2-(4-Fluorobenzyl)-8,9-dihydroxy-3-methyl-3,4-dihydro-2H-pyrido[1,2-a]pyrazine-1,6-dione]	< 5000 nM
CN1CCN(Cc2c(O)c(O)c3c(=O)n(Cc4ccc(F)cc4)ccn3c2=O)CC1=O [Example 27, 2-(4-Fluorobenzyl)-8,9-dihydroxy-7-[(4-methyl-3-oxopiperazin-1-yl)methyl]-2H-pyrido[1,2-a]pyrazine-1,6-dione]	< 1000 nM
CCOC[C@@H]1[C@@H]2[C@H]1n1c(c(O)c(O)cc1=O)C(=O)N2Cc1ccc(F)cc1 (racemic) [Example 42, (±)-1-(Ethoxymethyl)-2-(4-fluorobenzyl)-4,5-dihydroxy-1,1a,2,8a-tetrahydrocyclo-propa[e]pyrido[1,2-a]pyrazine-3,7-dione]	< 1000 nM
CC1CN(Cc2ccc(F)cc2)C(=O)c2c(O)c(O)cc(=O)n21 (stereo not drawn) [Example 16, 2-(4-Fluorobenzyl)-8,9-dihydroxy-4-methyl-3,4-dihydro-2H-pyrido[1,2-a]pyrazine-1,6-dione]	< 5000 nM
O=C1c2c(O)c(O)c(Br)c(=O)n2CCN1Cc1ccc(F)cc1 [Example 4, 2-(4-Fluorobenzyl)-8,9-dihydroxy-7-bromo-3,4-dihydro-2H-pyrido[1,2-a]pyrazine-1,6-dione]	< 5000 nM
O=c1c2c(O)c(O)c(CN3CCSCC3)c(=O)n2ccn1Cc1ccc(F)cc1 [Example 29, 2-(4-Fluorobenzyl)-8,9-dihydroxy-7-[(thiomorpholin-4-yl)methyl]-2H-pyrido[1,2-a]pyrazine-1,6-dione]	< 1000 nM
O=c1c2c(O)c(O)c(CN3CCCCC3)c(=O)n2ccn1Cc1ccc(F)cc1 [Example 25, 2-(4-Fluorobenzyl)-8,9-dihydroxy-7-(piperidin-1-ylmethyl)-2H-pyrido[1,2-a]pyrazine-1,6-dione]	< 1000 nM
CC(=O)N1CCCCC1Cc1c(O)c(O)c2n(c1=O)CCN(Cc1ccc(F)cc1)C2=O (stereo not drawn) [Example 35, 7-[(1-Acetylpiperidin-2-yl)methyl]-2-(4-fluorobenzyl)-8,9-dihydroxy-3,4-dihydro-2H-pyrido[1,2-a]pyrazine-1,6-dione]	< 1000 nM
CSc1cc(F)ccc1Cn1ccn2c(=O)cc(O)c(O)c2c1=O [Example 30, 2-[4-Fluoro-2-(methylthio)benzyl)-8,9-dihydroxy-2H-pyrido[1,2-a]pyrazine-1,6-dione]	< 1000 nM
O=C1c2c(O)c(O)cc(=O)n2CCN1Cc1ccc(Cl)cc1 [Example 7, 2-(4-Chlorobenzyl)-8,9-dihydroxy-3,4-dihydro-2H-pyrido[1,2-a]pyrazine-1,6-dione]	< 5000 nM
CC(=O)N1CCCC(Cc2c(O)c(O)c3n(c2=O)CCN(Cc2ccc(F)cc2)C3=O)C1 (stereo not drawn) [Example 34, 7-[(1-Acetylpiperidin-3-yl)methyl]-2-(4-fluorobenzyl)-8,9-dihydroxy-3,4-dihydro-2H-pyrido[1,2-a]pyrazine-1,6-dione]	< 1000 nM
O=c1c2c(O)c(O)c(CN3CCOCC3)c(=O)n2ccn1Cc1ccc(F)cc1 [Example 28, 2-(4-Fluorobenzyl)-8,9-dihydroxy-7-[(morpholin4yl)methyl]-2H-pyrido[1,2-a]pyrazine-1,6-dione]	< 1000 nM
CN(C)Cc1c(O)c(O)c2n(c1=O)CCN(Cc1ccc(F)cc1)C2=O [Example 13, 2-(4-Fluorobenzyl)-8,9-dihydroxy-7-[(dimethylamino)methyl]-3,4-dihydro-2H-pyrido[1,2-a]pyrazine-1,6-dione]	< 5000 nM
CC1(C)CN(Cc2ccc(F)cc2)C(=O)c2c(O)c(O)cc(=O)n21 [Example 17, 2-(4-Fluorobenzyl)-8,9-dihydroxy4,4dimethyl-3,4-dihydro-2H-pyrido[1,2-a]pyrazine-1,6-dione]	< 5000 nM
O=C1c2c(O)c(O)c(I)c(=O)n2CCN1Cc1ccc(F)cc1 [Example 5, 2-(4-Fluorobenzyl)-8,9-dihydroxy-7-iodo-3,4-dihydro-2H-pyrido[1,2-a]pyrazine-1,6-dione]	< 5000 nM
Cc1c(O)c(O)c2n(c1=O)CCN(Cc1ccc(F)cc1)C2=O [Example 3, 2-(4-Fluorobenzyl)-8,9-dihydroxy-7-methyl-3,4-dihydro-2H-pyrido[1,2-a]pyrazine-1,6-dione]	< 5000 nM
CCCOC[C@@H]1[C@@H]2[C@H]1n1c(c(O)c(O)cc1=O)C(=O)N2Cc1ccc(F)cc1 (racemic) [Example 43, (±)-1-(n-Propoxymethyl)-2-(4-fluorobenzyl)-4,5-dihydroxy-1,1a,2,8a-tetrahydrocyclo-propa[e]pyrido[1,2-a]pyrazine-3,7-dione]	< 1000 nM
O=C1c2c(O)c(O)cc(=O)n2CCN1Cc1ccccc1 [Example 1, 2-Benzyl-8,9-dihydroxy-3,4-dihydro-2H-pyrido[1,2-a]pyrazine-1,6-dione]	< 5000 nM
